Data from patent publication US10441663B2, “Methods for treating cancer” (Bicycle Therapeutics Limited, priority 2016, dated 2019).
*1 amine or outer side, *2 acyl side, *3 side chain or, on linkers, in order; H or OH if unused. Where a SMILES comes first, the peptide text is derived from it. Bridges are numbered along the chain shown (N, C = ends). [ ]: non-standard residue; d: D form. The star is where a group is joined. X1 = COc1cc2cc(c1Cl)N(C)C(=O)C[C@H](OC(=O)[C@H](C)N(C)C(=O)CCSSC(C)CCC(=O)*)[C@]1(C)O[C@H]1[C@H](C)[C@@H]1C[C@@](O)(NC(=O)O1)[C@H](OC)/C=C/C=C(\C)C2; 1Nal = N[C@@H](Cc1cccc2ccccc12)C(=O)O; TBMB = c1c(C[*:1])cc(C[*:3])cc1C[*:2]; Tle = CC(C)(C)[C@H](N)C(=O)O; βAla = NCCC(=O)O; Sar = CNCC(=O)O

System: LU-01-0046 non-small-cell lung carcinoma (NSCLC) PDX model
Assay: Efficacy in LU-01-0046 NSCLC PDX model (high MT1-expressing, docetaxel resistant)
Type: in vivo, Balb/C nude mice
Description: The objective of the project is to evaluate the in vivo therapeutic efficacy of test articles in the LU-01-0046 non-small-cell lung carcinoma (NSCLC) PDX model. LU-01-0046 is a high MT1-expressing NSCLC that is docetaxel resistant.
Each mouse was inoculated subcutaneously at the right flank with certain kind of tumor fragment (30 mm3) for tumor development. The treatments started when the average tumor volume reaches approximately 150-200 mm^3. The test article administration and the animal numbers in each group are shown in Table 40 which details the experimental design.
Treatment was given until the control tumors reached an average of 1000 mm^3.
Before commencement of treatment all animals will be weighed and the tumor volumes will be measured. Since the tumor volume can affect the effectiveness of any given treatment, mice will be assigned into groups using randomized block design based upon their tumor volumes.
The protocol and any amendment(s) or procedures involving the care and use of animals in this study will be reviewed and approved prior to conduct. […] At the time of routine monitoring, the animals will be checked for any effects of tumor growth and treatments on normal behavior such as mobility, food and water consumption, body weight gain/loss (body weights will be measured twice weekly), eye/hair matting and any other abnormal effect. Death and observed clinical signs will be recorded on the basis of the numbers of animals within each subset.
The major endpoint is to see if the tumor growth can be delayed or mice can be cured. Tumor sizes will be measured twice weekly in two dimensions using a caliper and the volume will be expressed in mm^3 using the formula: V=0.5 a×b^2 where a and b are the long and short diameters of the tumor, respectively. […] T-C is calculated with T as the median time (in days) required for the treatment group tumors to reach a predetermined size (e.g., 1.000 mm^3), and C is the median time (in days) for the control group tumors to reach the same size. […]
TGI is calculated for each group using the formula. […]

For COc1cc2cc(c1Cl)N(C)C(=O)C[C@H](OC(=O)[C@H](C)N(C)C(=O)CCSSC(C)CCC(=O)NCCC(=O)N(C)CC(=O)N(C)CC(=O)N(C)CC(=O)N(C)CC(=O)N(C)CC(=O)N(C)CC(=O)N(C)CC(=O)N(C)CC(=O)N(C)CC(=O)N(C)CC(=O)N[C@@H](C)C(=O)N[C@H]1CSCc3cc4cc(c3)CSC[C@H](NC(=O)[C@@H](C)NC(=O)[C@H](Cc3cccc5ccccc35)NC(=O)[C@H](CCC(=O)O)NC(=O)[C@H](CC(N)=O)NC(=O)[C@@H](C)NC1=O)C(=O)N[C@@H](CCC(=O)O)C(=O)N[C@@H](CC(=O)O)C(=O)N[C@@H](Cc1ccccc1)C(=O)N[C@@H](Cc1ccc(O)cc1)C(=O)N[C@@H](CC(=O)O)C(=O)N[C@@H](C(C)(C)C)C(=O)N[C@H](C(N)=O)CSC4)[C@]1(C)O[C@H]1[C@H](C)[C@@H]1C[C@@](O)(NC(=O)O1)[C@H](OC)/C=C/C=C(\C)C2 (stereo partly drawn) [BT1718] ({X1-βAla}-[Sar][Sar][Sar][Sar][Sar][Sar][Sar][Sar][Sar][Sar]AC[dA]NE[1Nal][dA]CEDFYD[Tle]C-NH2; linker 12-18-25 via TBMB (inferred)), the tumor response (3 mg/kg biw) was “tumor stasis”, the “relapse after cessation of dosing” value (10 mg/kg biw) was “lack of relapse” and the tumor response (10 mg/kg biw) was “tumor eradication”.
